One series addresses T1, human GlyT1c transporter (Homo sapiens, UniProt P48067).
T1 construct: expressed in transfected cells; host or cells: CHO cells (recombinant; membranes)
T1 sequence (P48067 1-706): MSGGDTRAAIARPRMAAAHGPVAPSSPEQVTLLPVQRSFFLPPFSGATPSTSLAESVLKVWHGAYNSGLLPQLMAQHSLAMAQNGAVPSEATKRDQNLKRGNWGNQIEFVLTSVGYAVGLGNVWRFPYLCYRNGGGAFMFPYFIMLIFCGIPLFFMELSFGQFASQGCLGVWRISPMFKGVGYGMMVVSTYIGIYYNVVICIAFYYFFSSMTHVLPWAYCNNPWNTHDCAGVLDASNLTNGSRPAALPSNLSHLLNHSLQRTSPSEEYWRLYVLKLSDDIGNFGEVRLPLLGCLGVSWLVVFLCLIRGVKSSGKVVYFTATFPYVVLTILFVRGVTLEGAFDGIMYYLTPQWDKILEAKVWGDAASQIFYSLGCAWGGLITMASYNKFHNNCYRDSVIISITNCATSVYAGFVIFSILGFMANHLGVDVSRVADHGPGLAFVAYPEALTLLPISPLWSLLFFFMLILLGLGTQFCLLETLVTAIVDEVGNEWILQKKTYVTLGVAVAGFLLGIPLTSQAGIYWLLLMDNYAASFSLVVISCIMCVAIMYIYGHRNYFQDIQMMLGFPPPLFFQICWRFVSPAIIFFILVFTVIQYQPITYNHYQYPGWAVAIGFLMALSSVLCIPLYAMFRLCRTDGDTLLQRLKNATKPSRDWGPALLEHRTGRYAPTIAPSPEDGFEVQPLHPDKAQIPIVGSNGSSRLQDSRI
Nature of the series: Radioligand binding assay using recombinant CHO cell membranes expressing human GlyT1. The following applies: read-out: radioligand binding Kiapp. As to the method:
2. Radioligand Binding Assays Using Recombinant CHO Cell Membranes Expressing Human GlyT1:
Radioligand binding to human GlyT1c transporter-expressing membranes was determined as described in Mezler et al., Molecular Pharmacology 74:1705-1715, 2008.

Series [1] is described as follows: Metabolic stability in human liver microsomes (microsomal clearance). In kind it is in vitro ADME. The following applies: 0.5 μM test substance, 0.25 mg microsomal protein/ml, pH 7.4, 37° C., NADPH. As to the method: The metabolic stability of a compound can be measured for example by incubating a solution of this compound with liver microsomes from particular species (for example rat, dog or human) and determining the half-life of the compound under these conditions (RS Obach, Curr Opin Drug Discov Devel. 2001, 4, 36-44). It is possible in this connection to conclude from an observed longer half-life that the metabolic stability of the compound is improved. The stability in the presence of human liver microsomes is of particular interest because it makes it possible to predict the metabolic degradation of the compound in the human liver. Compounds with increased metabolic stability (measured in the liver microsome test) are therefore probably also degraded more slowly in the liver. The slower metabolic degradation in the liver may lead to higher and/or longer-lasting concentrations (active levels) of the compound in the body, so that the elimination half-life of the compounds of the invention is increased. Increased and/or longer-lasting active levels may lead to a better activity of the compound in therapeutic treatment. […]
Metabolic stability was determined as follows:
0.5 μM test substance was preincubated together with human liver microsomes (0.25 mg of microsomal protein/ml) in 0.05 M potassium phosphate buffer of pH 7.4 in microtiter plates at 37° C. for 5 min. […] The samples were frozen until analyzed. The remaining concentration of undegraded test substance was determined by LC MSMS. The half-life (T½) was determined from the gradient of the signal of test substance/unit time plot, allowing to calculate the half-life of the test substance, assuming first order kinetics, from the decrease in the concentration of the compound with time. The microsomal clearance (mCl) was calculated from mCl=ln 2/T½/(content of microsomal protein in mg/ml)×1000 (modified from references: Di, The Society for Biomolecular Screening, 2003, 453-462; Obach, DMD, 1999 vol 27. N 11, 1350-1359).

pKi: −log10 of the molar value.

As for `Cn1cnc(S(=O)(=O)NCc2ccc3c(c2)C(Cc2ccccc2)NC3)c1` (stereo not drawn) [Example 4, N-[(3-Benzylisoindolin-5-yl)methyl]-1-methyl-1H-imidazole-4-sulfonamide], the pKi at human GlyT1c transporter is above 6.00. Moreover, in series [1], the “human mCl” value is below 1 µL/min/mg.

Turning to `Cn1cnc(S(=O)(=O)NCCOc2ccc3c(c2)C(Cc2ccccc2)NC3)c1` (stereo not drawn) [Example 5, N-[2-(3-Benzylisoindolin-5-yl)oxyethyl]-1-methyl-1H-imidazole-4-sulfonamide], at human GlyT1c transporter, the pKi is above 7.00. The “human mCl” value in series [1] is below 1 µL/min/mg.

In the case of `Cn1cc(S(=O)(=O)NCCOc2ccc3c(c2)C(Cc2ccccc2)NC3)cn1` (stereo not drawn) [Example 7, N-[2-(3-Benzylisoindolin-5-yl)oxyethyl]-1-methyl-1H-pyrazole-4-sulfonamide], at human GlyT1c transporter, the pKi is above 7.00. In series [1], the “human mCl” value is below 10 µL/min/mg.
